# Key:
# Assay in all cases: relative viability (nuclei count vs DMSO), 5 days (fraction); higher = more cells survive
# Bicalutamide + Dasatinib = compound: CC(O)(CS(=O)(=O)c1ccc(F)cc1)C(=O)Nc1ccc(C#N)c(C(F)(F)F)c1 [Bicalutamide] + Cc1nc(Nc2ncc(C(=O)Nc3c(C)cccc3Cl)s2)cc(N2CCN(CCO)CC2)n1 [Dasatinib] (partner 0.075 µM)
# In short: (§1)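 After 5 days of treatment, lung cancer cells in 1536-well plates were fixed and stained in a single step (final 0.05% Triton X-100, 1% formaldehyde, 1 ug/ml Hoechst) and their nuclei counted on 4× images. Treatment had been applied by pin tool the day after seeding as one drug alone or as a fixed anchor-drug dose with five library-drug doses (not always all listed) in √10 steps. Relative viability is the nuclei count of treated wells divided by that of vehicle wells, and values are medians of duplicate plates.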
# Bicalutamide + OSI-027 = compound: CC(O)(CS(=O)(=O)c1ccc(F)cc1)C(=O)Nc1ccc(C#N)c(C(F)(F)F)c1 [Bicalutamide] + COc1cccc2cc(-c3nc([C@H]4CC[C@H](C(=O)O)CC4)n4ncnc(N)c34)[nH]c12 [OSI-027] (partner 0.5 µM)
# In short: as §1
# [1] = compound: CC(O)(CS(=O)(=O)c1ccc(F)cc1)C(=O)Nc1ccc(C#N)c(C(F)(F)F)c1 [Bicalutamide] + Nc1nc2[nH]cc(CCc3ccc(C(=O)N[C@@H](CCC(=O)O)C(=O)O)cc3)c2c(=O)[nH]1 [Pemetrexed] (partner 0.2 µM)
# In short: as §1
# [2] = compound: C(C(=O)C(=O)O)Br [Bromopyruvate] + Cc1cc(Nc2cc(N3CCN(C)CC3)nc(Sc3ccc(NC(=O)C4CC4)cc3)n2)n[nH]1 [Tozasertib] (partner 0.1 µM)
# In short: as §1
cell line,measurement,setting,value
UMC-11,relative viability,Bicalutamide + Dasatinib; first compound 0.08 µM,0.523
same,relative viability,Bicalutamide + Dasatinib; first compound 0.253 µM,0.399
same,relative viability,Bicalutamide + Dasatinib; first compound 0.8 µM,0.576
same,relative viability,Bicalutamide + Dasatinib; first compound 2.53 µM,0.431
same,relative viability,Bicalutamide + OSI-027; first compound 0.08 µM,0.505
same,relative viability,Bicalutamide + OSI-027; first compound 0.253 µM,0.461
same,relative viability,Bicalutamide + OSI-027; first compound 0.8 µM,0.591
same,relative viability,Bicalutamide + OSI-027; first compound 2.53 µM,0.395
same,relative viability,[1]; first compound 0.08 µM,0.83
same,relative viability,[1]; first compound 0.253 µM,0.732
same,relative viability,[1]; first compound 0.8 µM,0.829
same,relative viability,[1]; first compound 2.53 µM,0.756
same,relative viability,[2]; first compound 1 µM,0.201
same,relative viability,[2]; first compound 3.162 µM,0.196
same,relative viability,[2]; first compound 10 µM,0.188
same,relative viability,[2]; first compound 31.62 µM,0.208
same,relative viability,[2]; first compound 100 µM,0.213

# — the supplement of paper PMC10307832
